Data set [1] relates to HT1080 (human fibrosarcoma). The experiment in a line: Cell cytotoxicity CellTiter-Glo, HT1080. The class given is cell-based. Conditions: HT-1080. As for the experimental part:
(§1) Cells were seeded in 96-well microplates and treated with compounds or cisplatin (as a positive control) at 9 increasing concentrations in technical triplicate. […] On day 1, 90 μL of various cell suspensions with the number of cells ranging from 5000-8000 cells/well were seeded into wells of a 96-well plate (Corning). The number of cells to be seeded was previously determined. • 2. All 96-wells plates with cells were placed in an incubator overnight at 37° C. with 5% CO2. • 3. On day 2, cells were observed under a microscope ensuring the cells treated with vehicle control were in good condition. • 4. A dilution series of the test compounds and cisplatin were prepared at 10× the final concentrations required. 10 μL/well of 10× compound solution was added to the corresponding plates. The final volume was 100 μL/well for all the plates. Final DMSO concentration was 0.1%. • 5. On day 5 (after 72 hours of incubation), 50 μL of CTG reagent was added to each well. • 6. Contents were mixed for 5 minutes on an orbital shaker to facilitate cell lysis. • 7. The plate was allowed to incubate at room temperature for 10 minutes to stabilize luminescent signals. […]
Background: ATP-based viability assays read luminescence as a measure of living cells.

A further data set concerns Caco-2 cells. Put plainly: Caco-2 cell permeability assay. It is filed as in vitro ADME. The conditions noted are these: apical to basal Papp, 2 μM, pH 7.4, 2.5 h. The method in brief:
(§2)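 Caco-2 monolayers grown 10 days were dosed at 2 μM (1% DMSO) on the donor side in HBSS/10 mM HEPES pH 7.4, for both AB and BA directions, then incubated 2.5 h at 37 °C without shaking. Donor and acceptor samples were quantified by LC-MS/MS to give Papp. Wells that failed a Lucifer Yellow integrity check (>1% passage) were excluded.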
On the technique in general: Caco-2 cells form a polarised layer with tight junctions and transporters.

A short description of data set [2]: Caco-2 cell permeability assay. It is filed as in vitro ADME. The conditions noted are these: human, Caco-2, pH 7.4, basal to apical Papp, pH 7.4, 2.5 h. The method in brief: as §2
A further data set concerns rat hepatocytes. Put plainly: Hepatocyte metabolic stability, rat. It is filed as in vitro ADME. The procedure: (§3) Biological Example 6: Rat hepatocyte half life Certain Example compounds and Comparator Compound 1 were tested for metabolic stability in a metabolic assay using mouse- and rat-derived hepatocytes. Compounds having good metabolic stability in the assay are expected to be especially useful as agents for preventing and/or treating cancer, by having a long half-life in human patients.
(§4) Frozen pooled rat and mouse hepatocytes obtained from LifeTechnologies were thawed and purified according to the manufacturer's instructions. The test compound (4 mM) in DMSO was diluted with acetonitrile to provide a 100 μM sub-stock then further diluted with pH 7.4 Krebs-Henseleit buffer (supplemented with CaCl2, NaHCO3, HEPES, fructose and glycine) to provide a 2 μM working solution. 25 μL of working solution was incubated at 37° C., treated with 25 μL of rat or mouse hepatocyte suspension (containing 1×10^6 cells/mL) and incubated at 37° C. with 5% CO2 level at 95% relative humidity. Wells were incubated for an appropriate time (0, 15, 30, 45, 60 and 75 min) then quenched with 250 μL of acetonitrile containing reference standards diltiazem, 7-ethoxycoumarin and propranolol). The plates were shaken, sonicated for 5 min then cooled to 4° C. until all sampling was complete. All plates were centrifuged at 4000 rpm for 20 min to pellet the debris. 110 μL supernatant was diluted 110 μL water and quantitated using LC-MS/MS.
(§5) A linear regression curve was fitted to a plot of natural logarithm (In) of AUC against time. The T-half (min)=0.693/slope

In data set [3] the test system is SU-DHL-10 cell line (human B cell lymphoma). Put plainly: Cell cytotoxicity in SU-DHL-10 cell line (CellTiter-Glo). Conditions: 72 h treatment, CTG. It is filed as cell-based. The method in brief: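 Cells seeded at 5000-8000/well, dosed next day with 9 concentrations in triplicate (DMSO 0.1% final) and incubated 72 h at 37° C, 5% CO2. Viability by CellTiter-Glo luminescence normalised to vehicle (100%) and medium blank; IC50 from sigmoidal nonlinear regression.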

Data set [4] has as its system MX-1 (human breast carcinoma). Put plainly: Cell cytotoxicity CellTiter-Glo, MX-1. It is filed as cell-based. Conditions: MX1. As for the experimental part:
as §1

The test system of data set [5] is RKO (human colon carcinoma). The experiment in a line: Cell cytotoxicity CellTiter-Glo, RKO. It is filed as cell-based. The procedure:
as §1

In data set [6] the test system is NCI-H1703 (human lung squamous cell carcinoma). Put plainly: Cell cytotoxicity CellTiter-Glo, NCI-H1703. It is filed as cell-based. As for the experimental part: as §1
For another data set, the system named is mouse hepatocytes. Put plainly: Hepatocyte metabolic stability, mouse. It is filed as in vitro ADME. As for the experimental part:
as §3, §4, §5

Data set [7] concerns CA46 (human B cell lymphoma). The experiment in a line: Cell cytotoxicity CellTiter-Glo, CA46. The class given is cell-based. As for the experimental part: as §1
For data set [8], the system named is DU4475 (human breast carcinoma). The experiment in a line: Cell cytotoxicity CellTiter-Glo, DU4475. It is filed as cell-based. Conditions: DU-4475. The procedure:
as §1

SMILES strings stand for the structures.

From US12599676B2, “Cytotoxic imidazo[1,2-A]pyridine compounds and their use in therapy” (MyricX Pharma Limited, priority 2022, dated 2026) come the findings set out here.

The IC50 is the concentration that inhibits the measured activity by half. One may read the Papp B→A as the apparent permeability from the basolateral to the apical side of a cell layer.

As to `CNCc1cnc2ccc(-c3ccc(F)c(F)c3OCCc3c(C(O)C(C)(C)C)nn(C)c3C)cn12` (single isomer, unassigned) [Example 14, 1-(4-(2-(2,3-difluoro-6-(3-((methylamino)methyl)imidazo[1,2-a]pyridin-6-yl)phenoxy)ethyl)-1,5-dimethyl-1H-pyrazol-3-yl)-2,2-dimethylpropan-1-ol], the IC50 came out at 1 nM in data set [1]; 0.4 nM in data set [3]; 1.4 nM in data set [4]; 2 nM in data set [5]; 4 nM in [6]; 2 nM in [7]. The half-maximal inhibitory concentration (IC50) in data set [8] amounted to 20 nM. The “Caco-2 A-B” value in the data set on Caco-2 cells turned out to be 0.215 ×10⁻⁶ cm/s. This compound also registered an apparent permeability from basolateral to apical (Papp B→A) at 2.5 h, 2 μM in [2] of 5.14 ×10⁻⁶ cm/s. For the same compound, the “rHeps t^1/2” value in the data set with rat hepatocytes is reported as 18 min. In the data set with mouse hepatocytes, the “mHeps t^1/2” value is 26.73 min.
